{
  "source": "ChEMBL document CHEMBL5154907",
  "about": "“Discovery and Anti-Inflammatory Activity Evaluation of a Novel CDK8 Inhibitor through Upregulation of IL-10 for the Treatment of Inflammatory Bowel Disease In Vivo” (J Med Chem, 2022)",
  "key": {"[1]": {"assay": "AUC (0 to infinity) in Sprague-Dawley rat at 5 mg/kg, iv measured for 3 to 1440 mins by HPLC analysis", "type": "ADME, organism-based", "details": "in vivo"}, "[2]": {"assay": "Tmax in Sprague-Dawley rat at 10 mg/kg, po measured for 3 to 1440 mins by HPLC analysis", "type": "ADME, organism-based", "details": "in vivo, time 3-1440 min"}, "[3]": {"assay": "Bioavailability in Sprague-Dawley rat at 10 mg/kg, po measured for 3 to 1440 mins by HPLC analysis", "type": "ADME, organism-based", "details": "in vivo, time 3-1440 min"}, "[4]": {"test_system": "Mus musculus", "assay": "Anti-inflammatory activity in DSS-induced C57BL/6 mouse model of inflammatory bowel disease assessed as increase in JAK1 phosphorylation in colon tissue at 5 to 20 mg/kg, po measured after 10 days by western blot analysis", "type": "functional, organism-based", "details": "dose 5-20 mg/kg, time 10.0 day"}, "[5]": {"assay": "Acute toxicity in 12 hr fasted ICR mouse assessed as toxic reaction at 2000 mg/kg, po measured daily for 7 days", "type": "organism-based", "details": "in vivo, 168 h, time 7 day"}, "[6]": {"molecular_target": "MAP kinase p38 (Mus musculus) (UniProt P47811+O08911+Q9WUI1+Q9Z1B7)", "assay": "Inhibition of P38 phosphorylation in R848-stimulated mouse BMDC cells at 1 to 4 uM treated for 2 hrs followed by R848 stimulation for 12 hrs by western blot analysis", "type": "cell-based", "details": "dose 1-4 µM, time 14.0 hrs"}, "[7]": {"molecular_target": "T1, Cyclin-dependent kinase 8 (Mus musculus) (UniProt Q8R3L8)", "T1 sequence (whole entry)": "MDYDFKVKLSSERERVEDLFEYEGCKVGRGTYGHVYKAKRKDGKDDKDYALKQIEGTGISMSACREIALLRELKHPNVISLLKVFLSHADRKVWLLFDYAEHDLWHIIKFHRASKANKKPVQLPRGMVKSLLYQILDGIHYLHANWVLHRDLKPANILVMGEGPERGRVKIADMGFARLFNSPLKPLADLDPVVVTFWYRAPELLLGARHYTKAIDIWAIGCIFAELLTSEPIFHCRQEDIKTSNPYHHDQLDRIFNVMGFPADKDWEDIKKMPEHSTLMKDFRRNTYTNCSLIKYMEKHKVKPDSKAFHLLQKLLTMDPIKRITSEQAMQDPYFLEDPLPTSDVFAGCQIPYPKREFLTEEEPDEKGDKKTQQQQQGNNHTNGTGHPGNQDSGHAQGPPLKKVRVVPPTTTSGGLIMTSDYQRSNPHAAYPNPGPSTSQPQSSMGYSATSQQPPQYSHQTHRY", "assay": "Inhibition of CDK8 in R848-stimulated mouse BMDC cells assessed as downregulation of c-Jun phosphorylation at Ser243 at 1 to 4 uM treated for 2 hrs followed by R848 stimulation for 12 hrs by western blot analysis", "type": "cell-based", "details": "dose 1-4 µM, time 14.0 hrs"}, "[8]": {"test_system": "BMDC", "assay": "Anti-inflammatory activity against R848-stimulated mouse BMDC cells assessed as upregulation of IL-10 production by ELISA method", "type": "functional, cell-based"}, "[9]": {"assay": "Acute toxicity in 12 hr fasted ICR mouse assessed as body weight loss at 2000 mg/kg, po measured daily for 7 days", "type": "organism-based", "details": "in vivo, 168 h, time 7 day"}, "[10]": {"molecular_target": "Cyclin-dependent kinase 8 (Homo sapiens) (UniProt P49336)", "sequence (P49336 whole entry)": "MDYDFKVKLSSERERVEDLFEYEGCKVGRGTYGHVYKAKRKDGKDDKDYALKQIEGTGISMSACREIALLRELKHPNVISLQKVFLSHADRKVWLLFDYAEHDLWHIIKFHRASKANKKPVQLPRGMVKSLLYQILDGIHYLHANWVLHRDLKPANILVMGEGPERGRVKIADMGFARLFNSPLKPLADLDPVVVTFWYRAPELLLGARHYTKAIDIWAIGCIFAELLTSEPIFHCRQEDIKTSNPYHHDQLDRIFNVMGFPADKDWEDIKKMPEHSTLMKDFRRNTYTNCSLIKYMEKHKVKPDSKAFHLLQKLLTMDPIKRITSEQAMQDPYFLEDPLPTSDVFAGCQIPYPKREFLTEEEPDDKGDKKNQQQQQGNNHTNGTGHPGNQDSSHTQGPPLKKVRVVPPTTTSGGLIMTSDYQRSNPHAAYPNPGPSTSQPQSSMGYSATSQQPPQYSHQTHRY", "assay": "Inhibition of CDK8 in human HCT-116 cells assessed as STAT-1 phosphorylation at Ser727 at 1 to 4 uM treated for 24 hrs by western blot analysis", "type": "cell-based", "details": "dose 1-4 µM"}, "[11]": {"assay": "AUC (0 to infinity) in Sprague-Dawley rat at 10 mg/kg, po measured for 3 to 1440 mins by HPLC analysis", "type": "ADME, organism-based", "details": "in vivo"}, "[12]": {"assay": "Acute toxicity in 12 hr fasted ICR mouse assessed as effect on kidney at 2000 mg/kg, po measured after 7 days by hematoxylin and eosin staining based histopathological analysis", "type": "organism-based", "details": "in vivo, 168 h, time 7 day"}, "[13]": {"molecular_target": "Myeloid differentiation primary response protein MyD88 (Mus musculus) (UniProt P22366)", "sequence (P22366 whole entry)": "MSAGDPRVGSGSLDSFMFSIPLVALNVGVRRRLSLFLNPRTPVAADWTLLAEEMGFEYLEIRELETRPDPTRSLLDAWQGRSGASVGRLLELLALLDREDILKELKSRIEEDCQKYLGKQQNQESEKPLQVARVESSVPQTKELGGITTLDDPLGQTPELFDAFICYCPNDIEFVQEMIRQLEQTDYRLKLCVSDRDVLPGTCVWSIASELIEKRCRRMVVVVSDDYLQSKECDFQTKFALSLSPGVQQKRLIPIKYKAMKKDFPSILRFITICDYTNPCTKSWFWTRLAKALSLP", "assay": "Inhibition of MyD88 expression in R848-stimulated mouse BMDC cells at 1 to 4 uM treated for 2 hrs followed by R848 stimulation for 12 hrs by western blot analysis", "type": "cell-based", "details": "dose 1-4 µM, time 14.0 hrs, DDE = dose-dependent effect"}, "[14]": {"assay": "Cmax in Sprague-Dawley rat at 5 mg/kg, iv measured for 3 to 1440 mins by HPLC analysis", "type": "ADME, organism-based", "details": "in vivo"}, "[15]": {"test_system": "Mus musculus", "assay": "Anti-inflammatory activity in DSS-induced C57BL/6 mouse model of inflammatory bowel disease assessed as increase in colon length at 5 to 20 mg/kg, po daily measured after 10 days", "type": "functional, organism-based", "details": "dose 5-20 mg/kg, time 10.0 day"}, "[16]": {"test_system": "Mus musculus", "assay": "Anti-inflammatory activity in C57BL/6 mouse model of inflammatory bowel disease assessed as reversal of DSS-induced MyD88 expression in colon tissue at 5 to 20 mg/kg, po measured after 10 days by western blot analysis", "type": "functional, organism-based", "details": "dose 5-20 mg/kg, time 10.0 day"}, "[17]": {"molecular_target": "c-Jun N-terminal kinase (Mus musculus) (UniProt Q91Y86+Q9WTU6+Q61831)", "sequence (Q61831 whole entry, looked up)": "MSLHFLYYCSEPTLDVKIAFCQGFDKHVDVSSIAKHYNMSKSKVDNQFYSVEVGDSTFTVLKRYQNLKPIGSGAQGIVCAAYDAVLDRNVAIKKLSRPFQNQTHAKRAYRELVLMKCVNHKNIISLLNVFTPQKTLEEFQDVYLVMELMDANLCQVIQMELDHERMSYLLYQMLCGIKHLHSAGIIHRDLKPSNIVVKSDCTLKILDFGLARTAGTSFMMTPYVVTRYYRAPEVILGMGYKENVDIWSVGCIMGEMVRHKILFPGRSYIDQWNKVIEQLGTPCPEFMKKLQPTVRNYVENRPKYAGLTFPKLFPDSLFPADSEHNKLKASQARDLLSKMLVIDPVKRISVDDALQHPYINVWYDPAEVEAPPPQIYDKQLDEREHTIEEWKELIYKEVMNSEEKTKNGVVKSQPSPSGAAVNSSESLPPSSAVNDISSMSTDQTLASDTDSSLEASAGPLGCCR", "sequence (Q91Y86 whole entry, looked up)": "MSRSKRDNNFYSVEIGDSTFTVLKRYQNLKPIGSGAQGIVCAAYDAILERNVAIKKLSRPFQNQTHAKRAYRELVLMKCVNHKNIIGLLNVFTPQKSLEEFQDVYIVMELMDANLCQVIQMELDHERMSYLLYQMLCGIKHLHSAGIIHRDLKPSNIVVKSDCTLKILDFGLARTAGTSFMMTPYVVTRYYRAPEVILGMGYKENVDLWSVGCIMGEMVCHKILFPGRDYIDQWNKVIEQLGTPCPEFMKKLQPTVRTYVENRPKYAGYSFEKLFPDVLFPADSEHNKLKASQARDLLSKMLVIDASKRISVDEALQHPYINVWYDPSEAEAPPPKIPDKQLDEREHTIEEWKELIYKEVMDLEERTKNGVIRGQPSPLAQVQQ", "sequence (Q9WTU6 whole entry, looked up)": "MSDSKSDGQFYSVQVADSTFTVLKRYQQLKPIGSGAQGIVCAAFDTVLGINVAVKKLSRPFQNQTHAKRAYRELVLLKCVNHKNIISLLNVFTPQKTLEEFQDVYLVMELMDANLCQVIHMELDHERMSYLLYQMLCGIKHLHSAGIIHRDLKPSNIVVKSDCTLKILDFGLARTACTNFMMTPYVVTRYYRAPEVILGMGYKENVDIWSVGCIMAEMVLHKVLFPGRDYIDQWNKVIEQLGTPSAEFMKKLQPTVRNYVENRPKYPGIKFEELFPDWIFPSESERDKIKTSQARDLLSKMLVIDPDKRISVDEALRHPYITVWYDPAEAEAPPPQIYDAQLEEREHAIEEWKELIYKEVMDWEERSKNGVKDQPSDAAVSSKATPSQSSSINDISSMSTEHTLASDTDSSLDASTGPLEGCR", "assay": "Inhibition of JNK phosphorylation in R848-stimulated mouse BMDC cells at 1 to 4 uM treated for 2 hrs followed by R848 stimulation for 12 hrs by western blot analysis", "type": "cell-based", "details": "dose 1-4 µM, time 14.0 hrs"}, "[18]": {"test_system": "Mus musculus", "assay": "Anti-inflammatory activity in C57BL/6 mouse model of inflammatory bowel disease assessed as decrease in DSS-induced neutrophil infiltration in colon tissue by measuring MPO activity at 5 to 20 mg/kg, po administered for 10 days", "type": "functional, organism-based", "details": "dose 5-20 mg/kg, time 10.0 day, DDE = dose-dependent effect"}, "[19]": {"assay": "Acute toxicity in 12 hr fasted ICR mouse assessed as effect on liver at 2000 mg/kg, po measured after 7 days by hematoxylin and eosin staining based histopathological analysis", "type": "organism-based", "details": "in vivo, 168 h, time 7 day"}, "[20]": {"test_system": "Mus musculus", "assay": "Anti-inflammatory activity in C57BL/6 mouse model of inflammatory bowel disease assessed as decrease in DSS-induced TNF-alpha levels in serum at 5 to 20 mg/kg, po daily measured after 10 days by ELISA method", "type": "functional, organism-based", "details": "dose 5-20 mg/kg, time 10.0 day"}, "[21]": {"test_system": "Mus musculus", "assay": "Anti-inflammatory activity in C57BL/6 mouse model of inflammatory bowel disease assessed as decrease in DSS-induced TNF-alpha levels in colon tissue at 5 to 20 mg/kg, po daily measured after 10 days by ELISA method", "type": "functional, organism-based", "details": "dose 5-20 mg/kg, time 10.0 day"}, "[22]": {"test_system": "Mus musculus", "assay": "Anti-inflammatory activity in C57BL/6 mouse model of inflammatory bowel disease assessed as decrease in DSS-induced IL-6 levels in serum at 5 to 20 mg/kg, po daily measured after 10 days by ELISA method", "type": "functional, organism-based", "details": "dose 5-20 mg/kg, time 10.0 day"}, "[23]": {"assay": "Stability of compound in human liver microsome assessed as intrinsic clearance by HPLC analysis", "type": "ADME", "details": "liver microsomes, read-out: CLH"}},
  "note": "Active and inactive are the calls of the source. The rule behind the calls is not given here.",
  "data": [
    {"smiles": "CCc1ccccc1NC(=O)c1cncc(-c2ccc(C(=O)N3CCNCC3)cc2)c1", "values": [
      {"measurement": "AUC(0-inf)", "setting": "[1]", "result": 642, "unit": "ng·h/mL"},
      {"measurement": "Tmax", "setting": "[2]", "result": 43.8, "unit": "min"},
      {"measurement": "bioavailability", "setting": "[3]", "result": 29.3, "unit": "%"},
      {"measurement": "Activity", "setting": "[4]", "result": "Active"},
      {"measurement": "Activity", "setting": "[5]", "result": "Non-Toxic"},
      {"measurement": "inhibition", "setting": "[6]", "result": "Active"},
      {"measurement": "inhibition", "setting": "[7]", "result": "Active"},
      {"measurement": "Activity", "setting": "[8]", "result": "Active"},
      {"measurement": "Activity", "setting": "[9]", "result": "Non-Toxic"},
      {"measurement": "inhibition", "setting": "[10]", "result": "Active"},
      {"measurement": "AUC(0-inf)", "setting": "[11]", "result": 520, "unit": "ng·h/mL"},
      {"measurement": "Activity", "setting": "[12]", "result": "Non-Toxic"},
      {"measurement": "inhibition", "setting": "[13]", "result": "Dde"},
      {"measurement": "Cmax", "setting": "[14]", "result": 528, "unit": "ng/mL"},
      {"measurement": "Activity", "setting": "[15]", "result": "Active"},
      {"measurement": "Activity", "setting": "[16]", "result": "Active"},
      {"measurement": "inhibition", "setting": "[17]", "result": "Active"},
      {"measurement": "Activity", "setting": "[18]", "result": "Dde"},
      {"measurement": "Activity", "setting": "[19]", "result": "Non-Toxic"},
      {"measurement": "Activity", "setting": "[20]", "result": "Active"},
      {"measurement": "Activity", "setting": "[21]", "result": "Active"},
      {"measurement": "Activity", "setting": "[22]", "result": "Active"},
      {"measurement": "microsomal CLint", "setting": "[23]", "result": 5.5, "unit": "µL/min/mg"}
    ]}
  ]
}
